The values that follow come from patent US20110038885A1, “CHEMOKINE ANALOGS” (priority 2007, published 2011).

For orientation: EC50 means the midpoint of the concentration-response curve.

The structures appear in SMILES notation. Numbered stars: 1 amine (or outer) side, 2 acyl side, 3 side chain; on linkers, the order of the positions; unused ones are H or OH. Bridge positions count the residues as written; N and C are the ends. Square brackets hold non-standard residues; d marks the D form. Peptide text beside a SMILES is read from it. * marks the point of attachment. Benzoyl(4-Ph) = O=C(c1ccc(-c2ccccc2)cc1)*; Phenylacetyl(4-Me) = Cc1ccc(CC(=O)*)cc1; Glutaryl = O=C(CCCC(=O)[*:2])[*:1]; 1Naphthoyl = O=C(c1cccc2ccccc12)*; 2Naphthoyl = O=C(c1ccc2ccccc2c1)*; pGlu = O=C1CC[C@@H](C(=O)O)N1; Suc = O=C(CCC(=O)[*:2])[*:1]; X4 = O=C(c1cc2ccccc2[nH]1)*; hCys = N[C@@H](CCS)C(=O)O; Isobutyryl = CC(C)C(=O)*; Orn = NCCC[C@H](N)C(=O)O; Dap = NC[C@H](N)C(=O)O; Piv = CC(C)(C)C(=O)*; Butyryl = CCCC(=O)*; Bz = O=C(c1ccccc1)*; Ahx = NCCCCCC(=O)O; GABA = NCCCC(=O)O; βAla = NCCC(=O)O

For the assay, the system named is MCP-1. Nature of the assay: In vitro chemotaxis (trans-well migration) v MCP-1. It is filed as cell-based, human. How it is done: To determine whether an agent inhibits a chemokine-induced activity, such as macrophage recruitment, varying amounts of the agent are mixed with cells in the presence of a known chemoattractant. For example, a range of known concentrations of an agent, e.g., a chemokine peptide, is incubated with a defined number (e.g., 10^4-10^6) of human THP-1 monocyte cells in individual wells of the top compartment of a trans-well plate. Chemokine, at a concentration known to cause significant migration of THP-1 cells in the trans-well migration assay, is placed in the lower compartment of a trans-well plate. Cells are then incubated at 37° C. for a period sufficient to allow migration, e.g., 4 hours. After incubation, the cells are gently removed from the top of the filter with a pipette, 20 μl of 20 mM EDTA in simple PBS is added into each top well, and incubated for 20 minutes at 4° C. The filter is carefully flushed with media using a gentle flow, and removed. A standard curve consisting of a two-fold dilution series of THP-1 cells (in 29 μl) is placed to accurately quantify the number of cells that have migrated. Migrated cells are stained with 3 μl of MTT stock dye solution which is added directly into each well (5 mg/ml in RPMI-1640 without phenol red) (Sigma Chemical Co., St. Louis, Mo., USA) and incubated at 37° C. for 4 hours. The media is carefully aspirated from each well, and the converted dye is solubilized by 20 μl of DMSO. Absorbance of converted dye is measured at a wavelength of 595 nm using an ELISA plate reader. The number of migrated cells in each well is then determined by interpolation of the standard curve (see also Imai et al., J. Biol. Chem., 272:15036, 1997). Any method suitable for counting cells can be used, for example, counting with a hemocytometer, incubation of the cells with MTT (see above), or FACS analysis. A negative control assay is also performed, using TGFβ or another non-chemokine chemoattractant (e.g., IL1β or TNFα). To assess whether the agent is cytotoxic, the same concentrations of agent are incubated with THP-1 cells. Agents which 1) are not cytotoxic at levels which inhibit migration, 2) are ineffective at inhibiting the negative control-induced migration, and 3) reduce or inhibit chemokine-induced THP-1 migration, are agents which fall within the scope of the invention.
`CC[C@H](C)[C@@H]1NC(=O)[C@H](Cc2c[nH]c3ccccc23)NC(=O)[C@@H](N)CSSC[C@@H](C(N)=O)NC(=O)[C@H](CCC(N)=O)NC1=O` [Example 2, c(Cys-Trp-Ile-Gln-Cys)-NH2] (H-CWIQC-NH2; disulfide 1-5): the 50% effective concentration (EC50) is 7 nM.

`CC[C@H](C)[C@@H]1NC(=O)[C@H](Cc2c[nH]c3ccccc23)NC(=O)[C@H](CCCCN)NC(=O)[C@@H](NC(=O)[C@@H](CCC(N)=O)NC(C)=O)CSSC[C@@H](C(N)=O)NC(=O)[C@H](CCC(N)=O)NC1=O` [Example 3, Ac-DGln-c(Cys-Lys-Trp-Ile-Gln-Cys)-NH2] (Ac-[dQ]CKWIQC-NH2; disulfide 2-7) gave an EC50 of 6 nM.

Consider `CC[C@H](C)[C@@H]1NC(=O)[C@H](Cc2c[nH]c3ccccc23)NC(=O)[C@H](CCCCN)NC(=O)CSCC[C@@H](C(N)=O)NC(=O)[C@H](CCC(N)=O)NC1=O` [Example 4, (Ac=Lys=Trp=Ile=Gln=hCyc)=NH2] ({CH2CO}-KWIQ[hCys]-NH2; thioether N-5), for which the EC50 came out at 20 nM.

`CC[C@H](C)[C@@H]1NC(=O)[C@H](Cc2c[nH]c3ccccc23)NC(=O)[C@H](CCCCN)NC(=O)CCCCCNC(=O)C[C@@H](C(N)=O)NC(=O)[C@H](CCC(N)=O)NC1=O` [Example 5, c(Ahx-Lys-Trp-Ile-Gln-Asp)-NH2] ([Ahx]KWIQD-NH2; lactam N-6) came in with an EC50 of 5 nM.

On to `CC[C@H](C)[C@@H]1NC(=O)[C@H](Cc2c[nH]c3ccccc23)NC(=O)[C@H](CCCCN)NC(=O)[C@@H](NC(=O)C(C)C)CC(=O)NC[C@@H](C(N)=O)NC(=O)[C@H](CCC(N)=O)NC1=O` [Example 6, Isobutyryl-c(Asp-Lys-Trp-Ile-Gln-Dap)-NH2] (Isobutyryl-DKWIQ[Dap]-NH2; lactam 1-6), for which it took 5 nM to reach a half-maximal effect (EC50).

`CC[C@H](C)[C@@H]1NC(=O)[C@H](Cc2c[nH]c3ccccc23)NC(=O)[C@H](CCCCN)NC(=O)[C@@H](NC(=O)C(C)C)CNC(=O)CC[C@@H](C(N)=O)NC(=O)[C@H](CCC(N)=O)NC1=O` [Example 7, Isobutyryl-c(Dap-Lys-Trp-Ile-Gln-Glu)-NH2] (Isobutyryl-[Dap]KWIQE-NH2; lactam 1-6) showed an EC50 of 5 nM.

`CC[C@H](C)[C@@H]1NC(=O)[C@H](Cc2c[nH]c3ccccc23)NC(=O)[C@H](CCCCN)NC(=O)CCCC(=O)NCCC[C@@H](C(N)=O)NC(=O)[C@H](CCC(N)=O)NC1=O` [Example 8, c(Glutaryl-Lys-Trp-Ile-Gln-Orn)-NH2] (KWIQ[Orn]-NH2; linker N-5 via Glutaryl) gave a concentration for a half-maximal effect (EC50) of 5 nM.

In turn, `CC[C@H](C)[C@@H]1NC(=O)[C@H](Cc2c[nH]c3ccccc23)NC(=O)[C@H](CCCCN)NC(=O)[C@@H](NC(=O)[C@@H]2CCC(=O)N2)CSSC[C@@H](C(N)=O)NC(=O)[C@H](CCC(N)=O)NC1=O` [Example 52, pGlu-c(Cys-Lys-Trp-Ile-Gln-Cys)-NH2] ([pGlu]CKWIQC-NH2; disulfide 2-7) returned a concentration for a half-maximal effect (EC50) of 25 nM.

Consider `CCCC(=O)N[C@H]1CSSC[C@@H](C(N)=O)NC(=O)[C@H](CCC(N)=O)NC(=O)[C@H]([C@@H](C)CC)NC(=O)[C@H](Cc2c[nH]c3ccccc23)NC(=O)[C@H](CCCCN)NC1=O` [Example 56, nButyryl-c(Cys-Lys-Trp-Ile-Gln-Cys)-NH2] (Butyryl-CKWIQC-NH2; disulfide 1-6), for which the concentration for a half-maximal effect (EC50) came to 25 nM.

Take `CC[C@H](C)[C@@H]1NC(=O)[C@H](Cc2c[nH]c3ccccc23)NC(=O)[C@H](CCCCN)NC(=O)[C@@H](NC(=O)c2ccccc2)CSSC[C@@H](C(N)=O)NC(=O)[C@H](CCC(N)=O)NC1=O` [Example 57, Benzoyl-c(Cys-Lys-Trp-Ile-Gln-Cys)-NH2] (Bz-CKWIQC-NH2; disulfide 1-6): the midpoint of the response, the EC50, lay at 15 nM.

Take `CC[C@H](C)[C@@H]1NC(=O)[C@H](Cc2c[nH]c3ccccc23)NC(=O)[C@H](CCCCN)NC(=O)[C@@H](NC(=O)C(C)C)CSSC[C@@H](C(N)=O)NC(=O)[C@H](CCC(N)=O)NC1=O` [Example 58, Isobutyryl-c(Cys-Lys-Trp-Ile-Gln-Cys)-NH2] (Isobutyryl-CKWIQC-NH2; disulfide 1-6): the EC50 is 8 nM.

`NCCCC[C@@H]1NC(=O)CCNC(=O)C[C@@H](C(N)=O)NC(=O)[C@H](CCC(N)=O)NC(=O)[C@H](Cc2c[nH]c3ccccc23)NC1=O` [Example 59, c((βA1a-Lys-Trp-Gln-Asp)-NH2] ([βAla]KWQD-NH2; lactam N-5) came in with an EC50 of 25 nM.

For the compound `CC[C@H](C)[C@@H]1NC(=O)[C@H](Cc2c[nH]c3ccccc23)NC(=O)[C@H](CCCCN)NC(=O)CCCNC(=O)C[C@@H](C(N)=O)NC(=O)[C@H](CCC(N)=O)NC1=O` [Example 60, c(Gaba-Lys-Trp-Ile-Gln-Asp)-NH2] ([GABA]KWIQD-NH2; lactam N-6), a half-maximal response (EC50) required 30 nM.

The compound `CC[C@H](C)[C@@H]1NC(=O)[C@H](Cc2c[nH]c3ccccc23)NC(=O)[C@H](CCCCN)NC(=O)CCCNC(=O)CC[C@@H](C(N)=O)NC(=O)[C@H](CCC(N)=O)NC1=O` [Example 61, c(Gaba-Lys-Trp-Ile-Gln-Glu)-NH2] ([GABA]KWIQE-NH2; lactam N-6) came in with an EC50 of 25 nM.

Regarding `CC[C@H](C)[C@@H]1NC(=O)[C@H](Cc2c[nH]c3ccccc23)NC(=O)[C@H](CCCCN)NC(=O)CCC(=O)NCCC[C@@H](C(N)=O)NC(=O)[C@H](CCC(N)=O)NC1=O` [Example 62, c(Succinyl-Lys-Trp-Ile-Gln-Orn)-NH2] (KWIQ[Orn]-NH2; linker N-5 via Suc), the EC50 is 66 nM.

Compound `CC[C@H](C)[C@@H]1NC(=O)[C@H](Cc2c[nH]c3ccccc23)NC(=O)[C@H](CCCCN)NC(=O)CCC(=O)NCCCC[C@@H](C(N)=O)NC(=O)[C@H](CCC(N)=O)NC1=O` [Example 63, c(Succinyl-Lys-Trp-Ile-Gln-Lys)-NH2] (KWIQK-NH2; linker N-5 via Suc) came in with a concentration for a half-maximal effect (EC50) of 66 nM.

In turn, `CC[C@H](C)[C@@H]1NC(=O)[C@H](Cc2c[nH]c3ccccc23)NC(=O)[C@H](CCCCN)NC(=O)[C@@H](NC(C)=O)CC(=O)NCCCC[C@@H](C(N)=O)NC(=O)[C@H](CCC(N)=O)NC1=O` [Example 64, Ac-c(Asp-Lys-Trp-Ile-Gln-Lys)-NH2] (Ac-DKWIQK-NH2; lactam 1-6) yielded a 50% effective concentration (EC50) of 20 nM.

As to `CC[C@H](C)[C@@H]1NC(=O)[C@H](Cc2c[nH]c3ccccc23)NC(=O)[C@H](CCCCN)NC(=O)CSC[C@@H](C(N)=O)NC(=O)[C@H](CCC(N)=O)NC1=O` [Example 65, c(Ac-Lys-Trp-Ile-Gln-Cys)-NH2] ({CH2CO}-KWIQC-NH2; thioether N-5), the EC50 is 30 nM.

`CC[C@H](C)[C@@H]1NC(=O)[C@H](Cc2c[nH]c3ccccc23)NC(=O)[C@H](CCCCN)NC(=O)[C@@H](NC(=O)C(C)(C)C)CSSC[C@@H](C(N)=O)NC(=O)[C@H](CCC(N)=O)NC1=O` [Example 66, Trimethylacetyl-c(Cys-Lys-Trp-Ile-Gln-Cys)-NH2] (Piv-CKWIQC-NH2; disulfide 1-6) registered an EC50 of 10 nM.

With `CC[C@H](C)[C@@H]1NC(=O)[C@H](Cc2c[nH]c3ccccc23)NC(=O)[C@H](CCCCN)NC(=O)[C@@H](NC(=O)c2ccc(-c3ccccc3)cc2)CSSC[C@@H](C(N)=O)NC(=O)[C@H](CCC(N)=O)NC1=O` [Example 67, 4-Biphenylcarboxyl-c(Cys-Lys-Trp-Ile-Gln-Cys)-NH2] ({Benzoyl(4-Ph)}-CKWIQC-NH2; disulfide 1-6), a half-maximal effect (EC50) was put at 8 nM.

In the case of `CC[C@H](C)[C@@H]1NC(=O)[C@H](Cc2c[nH]c3ccccc23)NC(=O)[C@H](CCCCN)NC(=O)[C@@H](NC(=O)c2cccc3ccccc23)CSSC[C@@H](C(N)=O)NC(=O)[C@H](CCC(N)=O)NC1=O` [Example 68, 1-Naphthoyl-c(Cys-Lys-Trp-Ile-Gln-Cys)-NH2] (1Naphthoyl-CKWIQC-NH2; disulfide 1-6), a half-maximal effect (EC50) was put at 30 nM.

As for `CC[C@H](C)[C@@H]1NC(=O)[C@H](Cc2c[nH]c3ccccc23)NC(=O)[C@H](CCCCN)NC(=O)[C@@H](NC(=O)c2ccc3ccccc3c2)CSSC[C@@H](C(N)=O)NC(=O)[C@H](CCC(N)=O)NC1=O` [Example 69, 2-Naphthoyl-c(Cys-Lys-Trp-Ile-Gln-Cys)-NH2] (2Naphthoyl-CKWIQC-NH2; disulfide 1-6), the response was half-maximal at 15 nM (EC50).

Compound `CC[C@H](C)[C@@H]1NC(=O)[C@H](Cc2c[nH]c3ccccc23)NC(=O)[C@H](CCCCN)NC(=O)[C@@H](NC(=O)c2cc3ccccc3[nH]2)CSSC[C@@H](C(N)=O)NC(=O)[C@H](CCC(N)=O)NC1=O` [Example 70, 2-Indolecarboxyl-c(Cys-Lys-Trp-Ile-Gln-Cys)-NH2] (X4-CKWIQC-NH2; disulfide 1-6) yielded an EC50 of 5 nM.

Compound `CC[C@H](C)[C@@H]1NC(=O)[C@H](Cc2c[nH]c3ccccc23)NC(=O)[C@H](CCCCN)NC(=O)[C@@H](NC(=O)Cc2ccc(C)cc2)CSSC[C@@H](C(N)=O)NC(=O)[C@H](CCC(N)=O)NC1=O` [Example 71, p-Tolylacetyl-c(Cys-Lys-Trp-Ile-Gln-Cys)-NH2] ({Phenylacetyl(4-Me)}-CKWIQC-NH2; disulfide 1-6) registered a 50% effective concentration (EC50) of 10 nM.
